Marks after values point to notes of the source that are not given here.
Assays:
[1] = tested on: DLD1 Human Colon Carcinoma; assay: Human tumor xenograft test, DLD1 colon carcinoma; assay type: in vivo, athymic mice; details: for T/C on day 0 / T/C on day 7 / T/C on day 14: schedule days 1, 7, DLD1
[2] = tested on: U87-MG Human Glioblastoma; assay: Human tumor xenograft test, U87-MG glioblastoma; assay type: in vivo, athymic mice; details: for T/C on day 0 / T/C on day 3 / T/C on day 7 / T/C on day 10: schedule day 1, U87-MG
[3] = tested on: highly purified tubulin (tubulin heterodimer); assay: Competitive binding test, [3H]vinblastine; set-up: species or system bovine; details: competitor 100 μM, [3H]vinblastine 100 nM, percent of binding to control without competitor
Description: (§1) Medium is RPMI-1640 with L-glutamine, supplemented with 10% heat-inactivated fetal calf serum, 100 units/mL penicillin, and 100 μg/mL streptomycin (Gibco, Grand Island, N.Y.). Microtubule-associated protein (MAP)-rich tubulin, containing about 70% tubulin and 30% MAPs (#ML113), and highly purified tubulin (>99% pure, #TL238), both from bovine brain, are obtained from Cytoskeleton, Inc., Denver, Colo. PEM buffer (80 mM piperazine-N,N′-bis[2-ethanesulfonic acid], pH 6.9, 1 mM ethylene glycol-bis(β-aminoethyl ether)-N,N,N′,N′-tetraacetic acid, 1 mM magnesium chloride) and guanosine 5′-triphosphate (GTP) are also obtained from Cytoskeleton. […] [^3H]vinblastine, specific activity 9.60 Ci/mmol and MicroSpin G-50 columns are obtained from Amersham Biosciences (Piscataway, N.J.). […] Other reagents are obtained from Sigma (St. Louis, Mo.).
(§2) The binding of examples of this invention to highly purified tubulin is studied by competitive inhibition methods.
These solutions are incubated at 24° for 1 hr and then applied to MicroSpin G-50 columns which are centrifuged for 2 min at 3000 rpm in an Eppendorf 5415C microfuge. An aliquot of each column effluent (containing tubulin and bound radioligand) is mixed with scintillation fluid and counted in a liquid scintillation spectrometer. […] Quadruplicates are averaged, and the ability of the competitor to inhibit the binding of the radioligand is expressed as a percentage of control binding in the absence of any competitor.

[4] = tested on: polymerized tubulin (microtubules); assay: Competitive binding test, [3H]paclitaxel; set-up: species or system bovine; details: competitor 20 μM (5 μM for unlabeled paclitaxel)
Description: as §1, §2
The reactions are then centrifuged at top speed in an Eppendorf 5415C microfuge for 20 min at room temperature in order to pellet the microtubule protein. Triplicate aliquots of each supernatant are mixed with scintillation fluid and counted in a liquid scintillation spectrometer. […] The ability of each competitor to inhibit radioligand binding to pelleted protein is expressed as a percent of controls without any competitor.

[5] = U87-MG glioblastoma, intravenously on day 1 with 5 mg/kg

CNCCCOc1cc(F)c(-c2c(Cl)nc(-c3cnccn3)nc2N[C@@H](C)C(F)(F)F)c(F)c1.Cl [Example 24a, 6-Chloro-5-{2,6-difluoro-4-[3-(methylamino)propoxy]phenyl}-2-pyrazin-2-yl-N-[(1S)-2,2,2-trifluoro-1-methylethyl]pyrimidin-4-amine hygrogen chloride]
T/C on day 0 ([1]; 5 mg/kg IV): 1.0 | T/C on day 7 ([1]; 5 mg/kg IV): 0.24** | T/C on day 14 ([1]; 5 mg/kg IV): Toxic | T/C on day 0 ([1]; 5 mg/kg PO): 1.0 | T/C on day 7 ([1]; 5 mg/kg PO): 1.07 | T/C on day 14 ([1]; 5 mg/kg PO): 0.85 | T/C on day 0 ([1]; 10 mg/kg IV): 1.0 | T/C on day 7 ([1]; 10 mg/kg IV): Toxic | T/C on day 0 ([1]; 10 mg/kg PO): 1.0 | T/C on day 7 ([1]; 10 mg/kg PO): 0.82 | T/C on day 14 ([1]; 10 mg/kg PO): 0.28** | growth of tumor ([1]; DLD1 colon carcinoma, orally on days 1 and 7 at 10 mg/kg/dose): inhibits the growth | T/C on day 0 ([2]; 1 mg/kg IV): 1.03 | T/C on day 3 ([2]; 1 mg/kg IV): 0.71* | T/C on day 7 ([2]; 1 mg/kg IV): 0.75 | T/C on day 10 ([2]; 1 mg/kg IV): 0.86 | T/C on day 0 ([2]; 5 mg/kg IV): 1.04 | T/C on day 3 ([2]; 5 mg/kg IV): 0.41** | T/C on day 7 ([2]; 5 mg/kg IV): 0.21** | T/C on day 10 ([2]; 5 mg/kg IV): 0.17** | T/C on day 0 ([2]; 10 mg/kg IV): 1.04 | T/C on day 3 ([2]; 10 mg/kg IV): 0.31** | T/C on day 7 ([2]; 10 mg/kg IV): Toxic | compound toxicity [2, 5]: some compound toxicity is also observed | growth of xenografts [2, 5]: inhibits the growth

CNCCCOc1cc(F)c(-c2c(Cl)nc(-c3ccccn3)nc2N[C@@H](C)C(F)(F)F)c(F)c1.Cl [Example 29a, 6-Chloro-5-{2,6-difluoro-4-[3-(methylamino)propoxy]phenyl}-2-pyridin-2-yl-N-[(S)-2,2,2-trifluoro-1-methylethyl]pyrimidin-4-amine hydrogen chloride]
T/C on day 0 ([1]; 1 mg/kg IV): 1.0 | T/C on day 7 ([1]; 1 mg/kg IV): 0.63* | T/C on day 14 ([1]; 1 mg/kg IV): 0.71* | T/C on day 0 ([1]; 1 mg/kg PO): 1.0 | T/C on day 7 ([1]; 1 mg/kg PO): 1.40 | T/C on day 14 ([1]; 1 mg/kg PO): 1.02 | T/C on day 0 ([1]; 5 mg/kg IV): 1.0 | T/C on day 7 ([1]; 5 mg/kg IV): 0.22** | T/C on day 14 ([1]; 5 mg/kg IV): Toxic | T/C on day 0 ([1]; 5 mg/kg PO): 1.0 | T/C on day 7 ([1]; 5 mg/kg PO): 0.79 | T/C on day 14 ([1]; 5 mg/kg PO): 0.59*

CC(=O)O[C@H]1C(=O)[C@@]2(C)[C@H]([C@H](OC(=O)c3ccccc3)[C@]3(O)C[C@H](OC(=O)[C@H](O)[C@@H](NC(=O)c4ccccc4)c4ccccc4)C(C)=C1C3(C)C)[C@]1(OC(C)=O)CO[C@@H]1C[C@@H]2O [Paclitaxel, reference compound]
[3H]Vinblastine binding, Mean [3]: 92 % of control | [3H]Paclitaxel binding, Mean [4]: 35 % of control

CC[C@]1(O)C[C@H]2CN(CCc3c([nH]c4ccccc34)[C@@](C(=O)OC)(c3cc4c(cc3OC)N(C=O)[C@H]3[C@@](O)(C(=O)OC)[C@H](OC(C)=O)[C@]5(CC)C=CCN6CC[C@]43[C@@H]65)C2)C1 [Vincristine, reference compound]
[3H]Vinblastine binding, Mean [3]: 5 % of control | [3H]Vinblastine binding, Mean ([3]; listed as vincristine): inhibits [^3H]vinblastine binding

From patent US7524849B2, “5-arylpyrimidines as anticancer agents” (Wyeth Holdings Corporation, priority 2003, dated 2009)
